Experimental data taken from patent US20050245511A1, “Novel compounds that inhibit tryptase activity” (Morphochem AG, priority 1999, published 2005).
Counter-ions that a name gives are not always drawn.

What was measured:
[1] = biological target: human recombinant tryptase (Homo sapiens, UniProt Q15661); assay: inhibition of the amidolytic activity of tryptase, chromogenic peptide substrate; format: biochemical; conditions: 2.8 nM human recombinant tryptase, Hepes buffer pH 7.8, 200 nM heparin, substrate tosyl-glycyl-prolyl-lysine-4-nitranilide acetate, room temperature
Description: (§1) To show the inhibition of the catalytic activity of tryptase one may use chromogenic peptide substrates. The inhibition of the amidolytic activity of tryptase by the compounds described above was shown as follows. The measurements were carried out at room temperature in microtiter plates. The compounds were dissolved in dimethylsulfoxide and 5 μl of this solution were added to a 2.8 nM solution of human recombinant tryptase in a Hepes buffer (pH: 7.8 In analogy to example 1 and using 100 mM Hepes, 140 mM NaCl, 0.1% PEG 6000, 0.05% Tween 80 and 200 nM heparin). Finally 750 μM of tosyl-glycyl-prolyl-lysine-4-nitranilide acetate in Hepes buffer were added and the hydrolysis of the substrate was followed with a spektrophometer. The same method but using N-methoxycarbonyl-D-norleucyl-glycyl-L-arginine-4-nitroanilide acetate as substrate was used to determine the inhibition of the proteolytic activity of factor Xa, i.e., another serin protease, by the compounds.

factor Xa = factor Xa (Homo sapiens, UniProt P00742); assay: inhibition of the proteolytic activity of factor Xa, chromogenic peptide substrate; format: biochemical; conditions: same method, substrate N-methoxycarbonyl-D-norleucyl-glycyl-L-arginine-4-nitroanilide acetate
Description: as §1

human recombinant tryptase, sequence (Q15661 31-275): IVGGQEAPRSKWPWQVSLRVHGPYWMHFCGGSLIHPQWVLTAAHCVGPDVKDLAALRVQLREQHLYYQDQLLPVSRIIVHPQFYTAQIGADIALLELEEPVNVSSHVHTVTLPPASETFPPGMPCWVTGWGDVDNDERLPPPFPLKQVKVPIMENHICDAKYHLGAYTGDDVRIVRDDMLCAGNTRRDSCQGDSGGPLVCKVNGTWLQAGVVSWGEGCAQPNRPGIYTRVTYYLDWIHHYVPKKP
factor Xa, sequence (P00742 235-488 limits assumed): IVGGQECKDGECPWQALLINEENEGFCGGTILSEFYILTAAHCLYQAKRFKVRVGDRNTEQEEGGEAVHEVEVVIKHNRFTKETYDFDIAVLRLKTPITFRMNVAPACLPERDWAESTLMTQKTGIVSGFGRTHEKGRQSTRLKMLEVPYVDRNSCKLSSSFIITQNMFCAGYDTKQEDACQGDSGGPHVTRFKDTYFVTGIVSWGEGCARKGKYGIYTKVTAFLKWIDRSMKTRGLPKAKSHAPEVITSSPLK
factor Xa, sequence (P00742 41-179 partner limits assumed): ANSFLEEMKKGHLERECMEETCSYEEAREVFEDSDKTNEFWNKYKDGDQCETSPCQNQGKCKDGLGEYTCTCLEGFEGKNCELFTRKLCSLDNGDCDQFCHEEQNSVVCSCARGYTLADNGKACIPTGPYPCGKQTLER

Row | SMILES | IC50 [1] | IC50 (factor Xa)
1 | CCOC(=O)C(Nc1cccc(C(=N)N)c1)C(=O)NC(C(=O)NCCc1c[nH]c2ccccc12)C(C)C (stereo not drawn) [Example 5, ethyl 2-({3-[amino(imino)methyl]phenyl}amino)-3-{[1-({[2-(1H-indol-3-yl)ethyl]amino}carbonyl)-2-methylpropyl]amino}-3-oxopropanoate hydrochloride] | < 0.09 µM | 5.7 µM
2 | COC(=O)c1ccc(C(NCc2ccc(C(=N)N)cc2)C(=O)NC(C(=O)NCCc2c[nH]c3ccccc23)C(C)C)cc1 (stereo not drawn) [Example 7, methyl 4-(1-[({4-[amino(imino)methyl]phenyl}methyl)amino]-2-{[1-({[2-(1H-indol-3-yl)ethyl]amino}carbonyl)-2-methylpropyl]amino}-2-oxoethyl)benzoate hydrochloride] | < 0.09 µM | > 110 µM
3 | CC(NC(=O)CNc1cccc(C(=N)N)c1)C(=O)NC1CCCCC1 (stereo not drawn) [Example 11, 2-{[({3-[amino(imino)methyl]phenyl}amino)acetyl]amino}-N-cyclohexylpropanamide hydrochloride] | < 0.09 µM | 4.45 µM
4 | CC(C)C(NC(=O)CNc1cccc(C(=N)N)c1)C(=O)NCCc1c[nH]c2ccccc12 (stereo not drawn) [Example 12, 2-{[({3-[amino(imino)methyl]phenyl}amino)acetyl]amino}-N-[2-(1H-indol-3-yl)ethyl]-3-methylbutanamide hydrochloride] | < 0.09 µM | 14.5 µM
5 | COc1ccc(CNC(=O)CNC(=O)CNc2cccc(C(=N)N)c2)cc1OC [Example 16, 2-({3-[amino (imino)methyl]phenyl}amino)-N-[2-({[3,4-bis(methyloxy)phenyl]methyl]amino}-2-oxoethyl)acetamide hydrochloride] | < 0.09 µM | 9.2 µM
6 | CC(C)C(NC(=O)C(CO)Nc1cccc(C(=N)N)c1)C(=O)NCc1ccc2c(c1)OCO2 (stereo not drawn) [Example 18, 2-{[2-({3-[amino(imino)methyl]phenyl}amino)-3-hydroxypropanoyl]amino}-N-(1,3-benzodioxol-5-ylmethyl)-3-methylbutanamide hydrochloride] | < 0.09 µM | 8.6 µM
7 | CC(C)C(NC(=O)C(CO)Nc1cccc(C(=N)N)c1)C(=O)NCCC(c1ccccc1)c1ccccc1 (stereo not drawn) [Example 19, 2-{[2-({3-[amino(imino)methyl]phenyl}amino)-3-hydroxypropanoyl]amino}-N-(3,3-diphenylpropyl)-3-methylbutanamide hydrochloride] | < 0.09 µM | 8.6 µM
8 | N=C(N)c1ccc(CNCC(=O)NCC(=O)N2CCN(Cc3ccc4c(c3)OCO4)CC2)cc1 [Example 23, 2-[({4-(amino(imino)methyl)phenyl)methyl)amino]-N-(2-[4-(1,3-benzodioxol-5-ylmethyl)-1-piperazinyl]-2-oxoethyl}acetamide hydrochloride] | < 0.09 µM | > 110 µM
9 | COc1ccccc1N1CCN(C(=O)CNC(=O)CNc2cccc(C(=N)N)c2)CC1 [Example 24, 2-({3-[amino(imino)methyl]phenyl}amino)-N-(2-{4-[2-(methyloxy)phenyl]-1-piperazinyl}-2-oxoethyl)acetamide hydrochloride] | < 0.09 µM | 1.6 µM
10 | N=C(N)c1cccc(NCC(=O)NCC(=O)NCCN2CCOCC2)c1 [Example 25, 2-({3-[amino(imino)methyl]phenyl}amino)-N-(2-([2-(4-morpholinyl)ethyl]amino}-2-oxoethyl)acetamide hydrochloride] | < 0.09 µM | 22.8 µM

The remaining lines, values ahead:

Row | IC50 [1] | IC50 (factor Xa) | SMILES
11 | < 0.09 µM | 6.7 µM | N=C(N)c1cccc(NCC(=O)NCC(=O)NCCc2c[nH]c3ccccc23)c1 [Example 2, 2-({3-[amino(imino)methyl]phenyl}amino)-N-(2-{[2-(1H-indol-3-yl)ethyl]amino}-2-oxoethyl)acetamide hydrochloride]
12 | < 0.09 µM | 21.9 µM | CC(Nc1cccc(C(=N)N)c1)C(=O)NCC(=O)NCCc1c[nH]c2ccccc12 (stereo not drawn) [Example 3, 2-({3-[amino(imino)methyl]phenyl}amino)-N-(2-{[2-(1H-indol-3-yl)ethyl]amino}-2-oxoethyl)propanamide hydrochloride]
13 | < 0.09 µM | 26.4 µM | N=C(N)c1cccc(NC(C(=O)NCC(=O)NCCc2c[nH]c3ccccc23)c2cc[nH]n2)c1 (stereo not drawn) [Example 4, 2-({3-[amino(imino)methyl]phenyl}amino)-N-(2-{[2-(1H-indol-3-yl)ethyl]amino}-2-oxoethyl)-2-(1H-pyrazol-3-yl)acetamide hydrochloride]
14 | < 0.09 µM | > 110 µM | COc1ccc(CNC(=O)C(C)NC(=O)CNCc2ccc(C(=N)N)cc2)cc1OC (stereo not drawn) [Example 6, 2-({[({4-[amino(imino)methyl]phenyl}methyl)amino]acetyl}amino)-N-{[3,4-bis(methyloxy)phenyl]methyl}propanamide hydrochloride]
15 | < 0.09 µM | 7.8 µM | N=C(N)c1cccc(NC(CO)C(=O)NCC(=O)NCCc2c[nH]c3ccccc23)c1 (stereo not drawn) [Example 8, 2-({3-[amino(imino)methyl]phenyl}amino)-3-hydroxy-N-(2-{[2-(1H-indol-3-yl)ethyl]amino}-2-oxoethyl)propanamide hydrochloride]
16 | < 0.09 µM | 2.4 µM | N=C(N)c1cccc(NCC(=O)NCC(=O)NCCc2ccc(O)cc2)c1 [Example 9, 2-({3-[amino(imino)methyl]phenyl}amino)-N-(2-{[2-(4-hydroxyphenyl)ethyl]amino}-2-oxoethyl)acetamide hydrochloride]
17 | < 0.09 µM | 55 µM | CC(C)C(Nc1cccc(C(=N)N)c1)C(=O)NCC(=O)NCCc1c[nH]c2ccccc12 (stereo not drawn) [Example 10, 2-({3-[amino(imino)methyl]phenyl}amino)-N-(2-{[2-(1H-indol-3-yl)ethyl]amino}-2-oxoethyl)-3-methylbutanamide hydrochloride]
18 | < 0.09 µM | > 110 µM | CC(NCc1ccc(C(=N)N)cc1)C(=O)NCC(=O)NCCc1ccccn1 (stereo not drawn) [Example 13, 2-[({4-[amino (imino)methyl]phenyl}methyl)amino]-N-(2-oxo-2-{[2-(2-pyridinyl)ethyl]amino}ethyl)propanamide hydrochloride]
19 | < 0.09 µM | 7.15 µM | N=C(N)c1cccc(NCC(=O)NCC(=O)NCc2ccccc2)c1 [Example 14, 2-({3-[amino (imino)methyl]phenyl}amino)-N-{2-oxo-2-[(phenylmethyl)amino]ethyl}acetamide hydrochloride]
20 | < 0.09 µM | 3.95 µM | N=C(N)c1cccc(NC(CO)C(=O)NCC(=O)N2CCc3ccccc3C2)c1 (stereo not drawn) [Example 15, 2-({3-[amino (imino)methyl]phenyl}amino)-N-[2-(3,4-dihydro-2 (1H)-isoquinolinyl)-2-oxoethyl]-3-hydroxypropanamide hydrochloride]
21 | < 0.09 µM | 7.6 µM | CC(C)C(NC(=O)C(CO)Nc1cccc(C(=N)N)c1)C(=O)NCc1ccccc1 (stereo not drawn) [Example 17, 2-{[2-({3-[amino(imino)methyl]phenyl}amino)-3-hydroxypropanoyl]amino}-3-methyl-N-(phenylmethyl)butanamide hydrochloride]
22 | < 0.09 µM | > 110 µM | N=C(N)c1ccc(CNC(CO)C(=O)NCC(=O)NCCc2ccccn2)cc1 (stereo not drawn) [Example 20, 2-[({4-[amino(imino)methyl]phenyl}methyl)amino]-3-hydroxy-N-(2-oxo-2-{[2-(2-pyridinyl)ethyl]amino}ethyl)propanamide hydrochloride]
23 | < 0.09 µM | 7.7 µM | N=C(N)c1ccc(CNC(C(=O)NCC(=O)NCCc2ccccn2)c2ccc[nH]2)cc1 (stereo not drawn) [Example 21, 2-[({4-(amino(imino)methyl)phenyl}methyl)amino]-N-(2-oxo-2-{[2-(2-pyridinyl)ethyl]amino}ethyl)-2-(1H-pyrrol-2-yl)acetamide hydrochloride]
24 | < 0.09 µM | 15 µM | N=C(N)c1ccc(CNC(C(=O)NCC(=O)NCc2cccnc2)c2ccc[nH]2)cc1 (stereo not drawn) [Example 22, 2-[({4-[amino(imino)methyl]phenyl}methyl)amino]-N-{2-oxo-2-[(3-pyridinylmethyl)amino]ethyl)-2-(1H-pyrrol-2-yl)acetamide hydrochloride]
